Measured values published in PMC11887451, “Leveraging Immunogenic Cell Death to Enhance the Immune Response against Malignant Pleural Mesothelioma Tumors” (Journal of the American Chemical Society, 2025).

Key:
[1] = test system: patient-derived Meso92 cell line (biphasic MPM); assay: MTT cytotoxicity assay, 72 h, Meso92; assay type: cell-based, human; settings: exposure time 72 h
Excerpt: Cell lines and culture conditions
Mouse malignant mesothelioma cancer cell line AB12, human nonmalignant mesothelioma cancer cell line Met5A (mesothelial cells), mouse macrophage cell line J774 and human monocytic cell line THP-1 were obtained from American Type Culture Collection (ATCC) (Rockville, MD, USA). Human malignant mesothelioma cell lines VMC23 (epithelial), Meso82 (sarcomatous), Meso92 (biphasic), were kindly provided by Prof. Walter Berger (Medical University of Vienna). All cells except for J774 were cultured in RPMI and J774 cells were cultured in DMEM. Both types of media were supplemented with 10% FBS and 1% penicillin-streptomycin (10,000 U/mL). Cells were grown in tissue culture flasks (75 cm2 and 25 cm2, SPL Life Sciences Co., Ltd., Korea). All cell lines were grown at 37 °C in a humidified atmosphere of 95% air and 5% CO 2 and passaged when they reached 80–90% confluency. All Au stock solutions were prepared in 1% DMSO in the respected medium, ensuring that cell viability was not inhibited. The Au concentration in the stock solutions was confirmed through inductively coupled plasma optical emission spectrometry. The stock solution of pemetrexed (10 mM) was prepared in Milli -Q water.
Inhibition of c ell viability assay
(§1) The cytotoxicity of compounds was determined using an MTT colorimetric test. The cells were harvested from culture flasks by trypsinization and seeded into Cellstar 96 -well microculture plates (Greiner Bio -One) at the seeding density of 6000 cells per well (6 × 10^4 cells/mL). After
(§2) the cells were allowed to resume exponential growth for 16 h, they were exposed to drugs at
(§3) different concentrations in media for 72 h. The drugs were diluted in a complete medium at the desired concentration added to each well (100 μL) and serially diluted in other wells. After exposure for 72 h, the media was replaced with MTT in media (5 mg/mL, 100 μL/well) and
(§4) incubated for an additional 50 min. Subsequently, the medium was aspirated, and the purple formazan crystals formed in viable cells were dissolved in DMSO (100 μL/well). Optical densities were measured at 570 nm using a BioTek Synergy H1 microplate and MultiskanTM SkyHigh plate readers. The quantity of viable cells was expressed in terms of treated/control (T/C) values in comparison to untreated control cells, and 50% inhibitory concentrations (IC 50) were calculated from concentration-effect curves by interpolation. An evaluation was based on means from at least three independent experiments, each comprising three replicat es per

[2] = test system: human malignant mesothelioma cell line LO68; assay: MTT cytotoxicity assay, 72 h, LO68; assay type: cell-based; settings: exposure time 72 h
[3] = test system: AB12 cells in BALB/c mice; assay: In vivo vaccination model; set-up: species or system mouse; settings: within the first 30 days after vaccination, n = 8
[4] = test system: extracellular HMGB1 from AB12 cells; assay: Western blot of extracellular HMGB1 in supernatants; assay type: cell-based, mouse; settings: AB12, 5 × IC50, 240 min
Experimental: cells were lysed with 200 µL of RIPA buffer, scraped, collected into 2 mL microtubes, sonicated for 45 sec on ice and centrifuged at 12000 × g for 20 min at 4 °C.
Protein concentration was measured by BCA Protein Assay Kit (PierceTM). 30 µg protein were reconstituted in loading buffer (5× Laemmli Buffer with 5% DTT) and heated at 95 °C for 10 min. Subsequently, the protein mixtures were resolved on 10% SDS-PAGE gels (BeyoGelTM)by electrophoresis ( 80 V for 20 min followed by 1 00 V for 60 min) and transferred onto a nitrocellulose membrane (250 mA for 2 h).
For Western Blot detection of extracellular HMGB1 protein, AB12 cells were seeded into Cellstar 6-well plates (Greiner Bio -One) at a density of 1 × 10^6 cells/well (2 ml per well). […]
After incubation with HRP-conjugated secondary antibodies (Catalogue Number: 7074P2, Cell Signaling Technology) in 2% BSA (w/v) in wash buffer at RT for 2 h, the membranes were washed with wash buffer 3 times for 5-10 min. Immune complexes were detected with SuperSignal™ West Atto Ultimate Sensitivity Substrate (A38554, Thermo Scientific) and analyzed using enhanced chemiluminescence imaging (Biorad). β-Actin was used as a loading control. […]
GA5010)). Luminescence was measured using Molecular Devices SpectraMax iD5 plate reader. […] The luminescence data was recorded for a total duration of 6 h following the treatment. […]

[5] = test system: human malignant mesothelioma cell line JU77; assay: MTT cytotoxicity assay, 72 h, JU77; assay type: cell-based; settings: exposure time 72 h
Excerpt: (§5) Human malignant mesothelioma cancer cell lines JU77 and LO68 were obtained from Cell Bank Australia (Children's Medical Research Institute, Westmead, Australia). Mouse malignant mesothelioma cancer cell line AB12, human nonmalignant mesothelioma cancer cell line Met5A (mesothelial cells), mouse macrophage cell line J774 and human monocytic cell line THP-1 were obtained from American Type Culture Collection (ATCC) (Rockville, MD, USA). Human malignant mesothelioma cell lines VMC23 (epithelial), Meso82 (sarcomatous), Meso92 (biphasic), were kindly provided by Prof. Walter Berger (Medical University of Vienna). All cells except for J774 were cultured in RPMI and J774 cells were cultured in DMEM. Both types of media were supplemented with 10% FBS and 1% penicillin-streptomycin (10,000 U/mL). Cells were grown in tissue culture flasks (75 cm2 and 25 cm2, SPL Life Sciences Co., Ltd., Korea). All cell lines were grown at 37 °C in a humidified atmosphere of 95% air and 5% CO 2 and passaged when they reached 80–90% confluency. All Au stock solutions were prepared in 1% DMSO in the respected medium, ensuring that cell viability was not inhibited.
as §1, §2, §3, §4
(§6) DMSO had not impact on the cell viability at the concentrations used.

[6] = test system: patient-derived Meso84 cell line (sarcomatoid MPM); assay: MTT cytotoxicity assay, 72 h, Meso84; assay type: cell-based, human; settings: exposure time 72 h
[7] = test system: human nonmalignant mesothelioma cell line Met5A; assay: MTT cytotoxicity assay, 72 h, Met5A; assay type: cell-based; settings: exposure time 72 h
HMGB1 in AB12 cells = assay: HMGB1 detection, confocal microscopy; assay type: cell-based, mouse; settings: AB12, 5 × IC50
Experimental: mL per dish). […] Afterwards, the […]
concentrations for 2 h at 37°C. […]
were stored in 1 mL of PBS. The confocal images were acquired by Laser Confocal Scanning […]
dishes were washed twice with 1 mL of PBS. The dishes were then incubated with HMGB1 […]
washed with 1 mL of PBS. Samples were stored in 1 mL of PBS. The confocal images were acquired by Laser Confocal Scanning Microscope (Leica SPE).
AB12 cells were seeded into the confocal dish (Biosharp) at a density of 3 × 10^5 cells/well (1 […]
mL per well). […] The cell culture […]
medium was aspirated and washed with PBS (2 × 1 ml). In a dimly lit setting, a solution of H2DCFDA (2',7'-dichlorodihydrofluorescein diacetate) in 1 × HBSS (10 μM, 1 mL) was added to each well and allowed to incubate for 15 min at 37 °C. Following this, the H 2DCFDA solution was aspirated and the wells were rinsed with HBSS (2 × 1 ml). Subsequently, the cells were treated with fresh colo urless cell culture medium containing compounds of interest at […]
Subsequently, the cells were treated with a culture medium containing 1 μM of Mitotracker TM Deep Red, 1 μM ER-Tracker™ Blue-White DPX and 1 μg/mL of Hoechst 33342 for 30 minutes. […] Images were captured using Laser Confocal Scanning Microscope (Leica SPE) and analyzed using the Microscope Software Platform LAS X Life Science. […]

[8] = test system: patient-derived VMC23 cell line (epithelioid MPM); assay: MTT cytotoxicity assay, 72 h, VMC23; assay type: cell-based, human; settings: exposure time 72 h
Excerpt: as §5, §1, §2, §3, §4, §6

[9] = test system: murine malignant mesothelioma cell line AB12; assay: MTT cytotoxicity assay, 72 h, AB12; assay type: cell-based, mouse; settings: exposure time 72 h
Excerpt: as §5, §1, §2, §3, §4, §6

[10] = test system: hepatocellular carcinoma tumors; set-up: method as in PMID 38261008, PMID 36827091; settings: cited from earlier work
colon cancer cells = test system: colon cancer cells; set-up: method as in PMID 33237764; settings: immunocompetent mice; cited from earlier work

In the case of `CCCC[N+](CCCC)=C1[S][Au-]2([S]1)[c]1ccccc1Cc1cccc[n+]12.F[P-](F)(F)(F)(F)F` (stereo not drawn) [2C], the IC50 [1] is reported as 3.1 ± 0.7 µM, the IC50 [2] is reported as 3 ± 0.3 µM and the “mice that developed tumors after vaccination” value [3] is reported as “≈ 50%”. For the same compound, the “extracellular HMGB1 in supernatant, Western Blot” value [4] was “presence of extracellular HMGB1”, the IC50 [5] was 2.7 ± 0.4 µM and the IC50 [6] was 3.9 ± 0.7 µM. The IC50 [7] was 1.4 µM, the “HMGB1 expression, confocal microscopy” value (HMGB1 in AB12 cells) was “confirmed by confocal microscopy” and the IC50 [8] was 2.4 ± 0.5 µM. It also gave an IC50 [9] of 2.7 ± 0.3 µM.
For `CCn1cc[n+](CC)[c]1[Au-][C]#CCOC(=O)[C@@]1(C)CC[C@]2(C)CC[C@]3(C)C(=CC(=O)[C@@H]4[C@@]5(C)CC[C@H](OC(=O)CCCCC[P+](c6ccccc6)(c6ccccc6)c6ccccc6)C(C)(C)[C@@H]5CC[C@]43C)[C@@H]2C1.[Br-]` [Au4], the “tumor-free time of vaccinated mice” value [10] is given as “more than 30 days”.
In the case of `Cc1cc(C)c(-n2cc[n+](CCO)[c]2[Au-][c]2n(-c3c(C(C)C)cccc3C(C)C)c3c([n+]2-c2c(C(C)C)cccc2C(C)C)C(=O)c2ccccc2C3=O)c(C)c1` [Au1], the “tumor-free time of vaccinated mice” value (colon cancer cells) is given as “more than 42 days”.
